Laboratory results: patent US7772177B2, “BIR domain binding compounds” (Aegera Therapeutics, Inc., priority 2005, dated 2010)
Counter-ions that a name gives are not always drawn.

Legend:
SKOV-3 cell line = assay: Cell survival, SKOV-3 cell line; assay type: cell-based; conditions: Homo sapiens, SK-OV-3
Procedure: (§1) Survival assays were routinely done on MDA-MB-231 and H460 cells. Cells were seeded in 96 well plates at a respective density of 5000 and 2000 cells per well and incubated at 37° C. in presence of 5% CO2 for 24 hours. Selected compounds were diluted into the media at various concentration ranging from 0.01 uM up to 100 uM. Diluted compounds were added onto the MDA-MB-231 cells. For H460 cells, the compounds were added either alone or in presence of 3 ng/ml of TRAIL. After 72 hours cellular viability was evaluated by MTS based assays. A solution of [3-(4,5-dimethylthiazol-2-yl)-5-(3-carboxymethoxyphenyl)-2-(4-sulfophenyl)-2H-tetrazolium, inner salt; MTS] was added onto cells for a period of 1 to 4 hours. Upon incubation the amount of converted MTS was evaluated using a Tecan spectrophotometer set at 570 nm.
Various compounds, including compounds 16, 42, 44, 45, 48, 52, 53, 75, 84 and 89, were tested in the MDA-MB-231 breast derived cell line and found to have EC50 of <5 μM. […] Also, various compounds 175, 176, 177 and 178 were tested against SKOV-3 cell line, and found to have EC50 of <5 μM.

GST-XIAP BIR3RING = target: T1, GST-XIAP BIR3RING (Homo sapiens, UniProt P98170); assay: Fluorescence polarization-based competition assay, XIAP Bir3-RING; assay type: binding
T1 construct: made in house; host or cells: E. coli DH5-alpha
T1 sequence (P98170 246-497): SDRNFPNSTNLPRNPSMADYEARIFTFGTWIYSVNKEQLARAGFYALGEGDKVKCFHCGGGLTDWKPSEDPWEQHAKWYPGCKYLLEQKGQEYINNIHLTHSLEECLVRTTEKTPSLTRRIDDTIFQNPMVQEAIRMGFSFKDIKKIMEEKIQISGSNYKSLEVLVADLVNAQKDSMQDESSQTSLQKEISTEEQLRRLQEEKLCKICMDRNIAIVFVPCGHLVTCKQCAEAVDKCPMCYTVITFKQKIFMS
Outline: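 Competitive fluorescence polarization with GST-XIAP BIR3-RING (aa 246-497, E. coli-expressed) and a fluorescein-labelled peptide probe in 50 mM MES pH 6.5 with BSA; protein fixed at titrated linear-signal level. Compound autofluorescence and quenching checked; IC50 from 10-point dilutions, Ki derived by Nikolovska-Coleska equation.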

GST-HIAP1(cIAP-2) BIR 3 = target: T2, GST-HIAP1(cIAP-2) BIR 3 (Homo sapiens, UniProt Q13489); assay: Fluorescence polarization-based competition assay, cIAP-2 Bir3; assay type: binding
T2 construct: made in house; host or cells: E. coli DH5-alpha
T2 sequence (Q13489 236-349): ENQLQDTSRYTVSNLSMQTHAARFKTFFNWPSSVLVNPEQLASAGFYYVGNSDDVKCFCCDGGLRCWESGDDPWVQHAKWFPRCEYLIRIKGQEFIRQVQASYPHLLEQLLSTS
Outline: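 GST-cIAP-2 BIR3 (aa 236-349, E. coli-expressed) at a pre-titrated fixed level, with fluorescein-labelled AVPF-peptide probe and 10-point compound dilutions in 50 mM MES pH 6.5 with BSA. Fluorescence polarization read at Ex 485/Em 535 nm; IC50 from curve fit, Ki derived per Nikolovska-Coleska equation.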

GST-HIAP2 (cIAP-1) BIR 3 = target: T3, GST-HIAP2 (cIAP-1) BIR 3 (Homo sapiens, UniProt Q13490); assay: Fluorescence polarization-based competition assay, cIAP-1 Bir3; assay type: binding
T3 construct: made in house; host or cells: E. coli DH5-alpha
T3 sequence (Q13490 251-363): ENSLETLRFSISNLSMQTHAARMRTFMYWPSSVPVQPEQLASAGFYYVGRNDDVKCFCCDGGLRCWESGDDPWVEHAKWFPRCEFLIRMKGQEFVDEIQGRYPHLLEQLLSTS
Outline: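 GST-cIAP-1 BIR3 (aa 251–363, E. coli) at a titrated fixed level, combined with fluorescein-labelled peptide probe and a 10-point compound series in 50 mM MES pH 6.5 with BSA. Polarization read at ex 485/em 535 nm; IC50 fitted, and Ki derived using the Nikolovska-Coleska equation.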

MDA-MB-231 cells = assay: Survival assay (MTS) on MDA-MB-231 cells; assay type: cell-based; conditions: Homo sapiens, 72 hours, read-out: EC50 MDA-MB-231 breast derived cell line
Procedure: MDA-MD-231 (breast) and H460 (lung) cancer cells were cultured in RPMI1640 media supplemented with 10% FBS and 100 units/mL of Penicillin and Steptomycin.
as §1

H460 cells = assay: Combination anti-cancer therapy in vivo with Taxotere, H460 tumors; design: species or system Female CD-1 nude mice; conditions: cumulative dose of 20 mg/kg, sc per day
Procedure: Taxotere (30 mg/kg, ip)/Saline (n=9)
Taxotere (30 mg/kg, ip)/compound 56 (2×5 mg/kg, sc) (n=10)
Female CD-1 nude mice (approximately 20-25 g) were subcutaneously injected with 1×10^6 H460 cells in the right flank. Animals were balanced into groups based on tumor size and drug therapy began when tumors were ˜30-50 mm^3. Animals that had no tumor or that were deemed outliers because of excessive tumor size at this time were removed from the study. The remaining animals received Taxotere (or equivalent volume of vehicle) at 30 mg/kg, ip 2 times, one week apart. The compound was given two times per day (at 10 mg/kg, sc, approximately 6 hrs apart), starting at the time of Taxotere, and continuing daily for the duration of the experiment. If dehydration occurred, animals received sc fluids (0.5 ml). Tumor size was measured three times per week. Health assessments were performed at the time of the compound's delivery.

[1] = test system: selected cell lines in hollow fibers; assay: Hollow fiber in vivo model; design: species or system Nu/Nu CD-1 male mice; conditions: Method 37, sub-cutaneous route
Procedure: At day 1, selected cell lines were cultured and the fiber filled at a cell density of about 40,000 cells/fiber. At the day of operation (day 4), three fibers are implanted sub-cutaneous into 28-35 Nu/Nu CD-1 male mice. On day 5, mice start to receive daily injection via sub-cutaneous route of control vehicle or vehicle containing the selected compound at the appropriate concentration and/or injection of cytotoxic agent via intra-peritoneal route. Upon 7 days of non-consecutive treatments, the animals are sacrificed, each fiber is removed and the metabolic viability of the remaining cells determined by MTT assay. Efficacy of the compound is define as the difference between the vehicle-treated animal and the animal treated with the compound alone or the compound given in combination of the cytotoxic agent

XIAP BIR3 = assay: Pull-down assay with affinity beads, western blot; assay type: binding; conditions: Method 33A
Procedure: Prior to the pull-down assay the compound 168-affinity-agarose beads were prepared as follows:
300 ul of avidine-agarose beads prepared as 50% slurry in buffer A were incubated with 40 ul compound 168 (2.5 mM final) for 6 hrs at 4° C. with shaking. Upon incubation the beads were washed 3 times with buffer A.
On the day of the pull-down assay, cells such as MDA-MB-231 or 293A were collected and lyzed with a buffer A containing 20 mM Tris HCl, 150 mM NaCl, 10% Glycerol 1% NP-40 and Protease inhibitor cocktail obtained from Sigma with a final protein concentration between 3 to 30 ug/ul.
For the pull-down assay, 60 ul of the compound 168-beads preparation were incubated with 300 ug cells lysate and 10 ul compound 107 (0.36 mM final) or as control with 10 ul of buffer A to get a final volume of 550 ul. The mixture was then incubated at 4 C over night with shaking. The following day, the beads were washed three times with the buffer A and the final bead pellet was re-suspended in 50 ul of 2× Leamli buffer. The samples were then centrifuged and the supernatant was collected for western blot analysis directed against XIAP of the other IAP's.
Alternatively a similar protocol was performed with AVPI-Biotin and IPVA-Biotin probes.

[2] = target: T4, XIAP Bir2-Bir3-RING (GST-linker BIR2 BIR3RING) (Homo sapiens, UniProt P98170); assay: Caspase de-repression assay using cellular extracts (apoptosome), XIAP Bir2-Bir3-RING; assay type: biochemical; conditions: 293 cell S100 extract
T4 construct: made in house; host or cells: E. coli DH5-alpha
T4 sequence (P98170 93-497): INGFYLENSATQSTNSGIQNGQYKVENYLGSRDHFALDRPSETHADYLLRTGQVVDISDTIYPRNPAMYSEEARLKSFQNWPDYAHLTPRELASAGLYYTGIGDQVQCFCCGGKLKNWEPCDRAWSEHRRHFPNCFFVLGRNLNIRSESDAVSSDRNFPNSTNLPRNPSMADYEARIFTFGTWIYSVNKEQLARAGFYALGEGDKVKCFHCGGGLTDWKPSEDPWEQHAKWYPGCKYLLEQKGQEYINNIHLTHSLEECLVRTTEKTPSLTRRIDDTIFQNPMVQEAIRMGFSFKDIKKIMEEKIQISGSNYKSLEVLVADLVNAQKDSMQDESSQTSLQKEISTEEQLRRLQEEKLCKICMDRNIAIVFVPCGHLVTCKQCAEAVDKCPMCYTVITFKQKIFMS
Procedure: 100 ug of 293 cell S100 extract and 0.25 uM-2 uM of GST-Xiap fusion protein (GST-BIR 3RING, GST-linker BIR2 BIR3RING) were co-incubated with serial dilutions of compound (0.02 uM-40 uM). Extracts were activated by adding 1 mM dATP, 0.1 mM ALLN, 133 ug Cytochrome C (final concentrations), and incubating at 37° C. for 25 minutes. All reactions and dilutions used S100 buffer (50 mM Pipes pH 7.0, 50 mM KCl, 0.5 mM EGTA pH 8.0, 2 mM MgCl2 supplemented with 1/1000 dilutions of 2 mg/ml Cytochalisin B, 2, mg/ml Chymotstatin, Leupeptin, Pepstatin, Antipain, 0.1M PMSF, 1M DTT). Final reaction volume was 30 ul. Caspase-3 activity was measured by overlaying 30 ul of a 0.4 mM DEVD-AMC solution. AMC cleavage was measured in a TECAN spectrophotometer at 360 nm excitation and 444 nm emission, on a kinetic cycle of 1 hour with readings taken every 5 minutes. Caspase activity was calculated as Vo of AMC fluorescence/sec. Caspase de-repression by our compounds were compared to fully activated extract and activated extract repressed by the presence of XIAP fusion protein.
(§2) Results: Compounds were also tested in the apoptosome assay and the linker-BIR2/caspase-3 inhibition assay and found to have IC50s in the following ranges: A: >10 μM; B: <10 μM; C: <1 μM, as shown in Table 7.

[3] = target: T5, XIAP Bir3-RING (GST-BIR 3RING) (Homo sapiens, UniProt P98170); assay: Caspase de-repression assay using cellular extracts (apoptosome), XIAP Bir3-RING; assay type: biochemical; conditions: 293 cell S100 extract
T5 construct: made in house; host or cells: E. coli DH5-alpha
T5 sequence (P98170 246-497): as the sequence (P98170 246-497) above
Outline: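 293-cell S100 extract with 0.25 uM-2 uM GST-XIAP fusion and compound (0.02 uM-40 uM), activated by 1 mM dATP, 0.1 mM ALLN and cytochrome C at 37° C. for 25 min in pH 7.0 Pipes buffer. Caspase-3 activity read as initial rate of DEVD-AMC cleavage (ex 360/em 444 nm) over 1 h, relative to fully activated and XIAP-repressed extract.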

[4] = target: T6, caspase-3 inhibited by linker BIR2-BIR3-RING of XIAP (Homo sapiens, UniProt P98170); assay: Caspase-3 linker-BIR2-BIR3-RING derepression assay; assay type: biochemical
T6 construct: made in house; host or cells: E. coli DH5-alpha (GST-XIAP); E. coli AD494 (His-caspase-3)
T6 sequence (P98170 93-497): as the sequence (P98170 93-497) above
Procedure: In order to determine the relative activity of the selected compound against BIR2, an in vitro assay was used where caspase-3 was inhibited by linker-BIR2 or linker BIR2-BIR3-RING of XIAP. Briefly, 1.5 ul of the enzyme, 0.25 uM to 2 uM of GST-Xiap fusion protein (GST-linker BIR2, GST-linker BIR2BIR3RING) were co-incubated with serial dilutions of compound (80 uM-0.04 uM). Caspase 3 activity was measured by overlaying 25 ul of a 0.4 mM DEVD-AMC solution. Final reaction volume was 100 ul. All dilutions were performed in caspase buffer (50 mM Hepes pH 7.4, 100 mM NaCl, 10% sucrose, 1 mM EDTA, 10 mM DTT, 0.1% CHAPS (Stennicke, H. R., and Salvesen, G. S. (1997). Biochemical characteristics of caspase-3, -6, -7, and -8. J. Biol. Chem. 272, 25719-25723)).
The fluorescent AMC released from the caspase-3 hydrolysis of the substrate was measured in a TECAN spectrophotometer at 360 nm excitation and 444 nm emission, on a kinetic cycle of 30 minutes with readings taken every 2 minutes. Caspase activity was calculated as Vo of AMC fluorescence/sec. Caspase de-repression by our compounds were compared to caspase-3 alone and caspase 3 repressed by the presence of XIAP fusion protein.
as §2

IC50 (GST-XIAP BIR3RING) [µM]	IC50 (GST-HIAP1(cIAP-2) BIR 3) [µM]	IC50 (GST-HIAP2 (cIAP-1) BIR 3) [µM]	Compound	EC50 (MDA-MB-231 cells) [µM]	other results
			CN[C@@H](C)C(=O)N[C@H](C(=O)N1CCC[C@H]1CN(CCc1ccccc1)C(=O)c1ccc(-c2ccc(C(=O)N(CCc3ccccc3)C[C@@H]3CCCN3C(=O)[C@@H](NC(=O)[C@H](C)NC)C(C)(C)C)cc2)cc1)C(C)(C)C [Compound 178]		EC50 (SKOV-3 cell line): < 5 µM
< 1	< 1	< 1	CN[C@@H](C)C(=O)N[C@H](C(=O)N1CCC[C@H]1CN(CCc1ccccc1)C(=O)CNCc1ccccc1)C(C)(C)C [Compound 45]	< 5	
< 1	< 1	< 1	CN[C@@H](C)C(=O)N[C@H](C(=O)N1CCC[C@H]1CN(CCc1ccccc1)C(=O)CCCc1ccccc1)C(C)(C)C [Compound 48]	< 5	
			CN[C@@H](C)C(=O)N[C@@H](CCc1ccccc1)C(=O)N1CCC[C@H]1CN(CCc1ccccc1)C(=O)[C@H](N)Cc1ccccc1 [Compound 89]	< 5	
< 1	< 1	< 1	CN[C@@H](C)C(=O)N[C@H](C(=O)N1CCC[C@H]1CN(CCc1ccccc1)C(=O)[C@H](N)Cc1ccc(F)cc1)C(C)(C)C [Compound 53]	< 5	
			CN[C@@H](C)C(=O)N[C@H](C(=O)N1CCC[C@H]1CN(CCc1ccccc1)C(=O)CCCC(=O)N(CCc1ccccc1)C[C@@H]1CCCN1C(=O)[C@@H](NC(=O)[C@H](C)NC)C(C)(C)C)C(C)(C)C [Compound 177]		EC50 (SKOV-3 cell line): < 5 µM
			CN[C@@H](C)C(=O)N[C@H](C(=O)N1CCC[C@H]1CN(CCc1ccccc1)C(=O)c1ccc(C(=O)N(CCc2ccccc2)C[C@@H]2CCCN2C(=O)[C@@H](NC(=O)[C@H](C)NC)C(C)(C)C)cc1)C(C)(C)C [Compound 175]		EC50 (SKOV-3 cell line): < 5 µM
< 1	< 1	< 1	CN[C@@H](C)C(=O)N[C@H](C(=O)N1CCC[C@H]1CN(CCc1ccccc1)C(=O)[C@H](N)Cc1ccccc1)C(C)(C)C [Compound 42]	< 5	
< 10	< 1	< 1	CN[C@@H](C)C(=O)N[C@H](C(=O)N1CCC[C@H]1CN(CCc1ccccc1)C(=O)[C@@H](N)Cc1ccccc1)C(C)(C)C [Compound 44]	< 5	
			CN[C@@H](C)C(=O)N[C@H](C(=O)N1CCC[C@H]1CN(CCc1ccccc1)C(=O)[C@H](N)Cc1ccc(OC)cc1)C(C)(C)C [54 bis-HCl]		Anti-tumor activity in combination with Taxotere (H460 cells): anti-tumor activity; MTT signal in hollow fiber model [1]: reduction in MTT signal
			CN[C@@H](C)C(=O)N[C@@H](CCc1ccccc1)C(=O)N1CCC[C@H]1CN(CCc1ccccc1)C(=O)[C@H](N)Cc1ccc(OC)cc1 [Compound 84]	< 5	
< 1	< 1	< 1	CN[C@@H](C)C(=O)N[C@H](C(=O)N1CCC[C@H]1CN(CCc1ccccc1)C(=O)[C@@H](Cc1ccccc1)NC)C(C)(C)C [Compound 52]	< 5	
			CN[C@@H](C)C(=O)N[C@H](C(=O)N1CCC[C@H]1CN(CCc1ccccc1)C(=O)CCCCCCCCC(=O)N(CCc1ccccc1)C[C@@H]1CCCN1C(=O)[C@@H](NC(=O)[C@H](C)NC)C(C)(C)C)C(C)(C)C [Compound 176]		EC50 (SKOV-3 cell line): < 5 µM
			CN[C@@H](C)C(=O)N[C@H](C(=O)N1CCC[C@H]1CN(CCc1ccccc1)C(=O)CCCCC1SC[C@@H]2NC(=O)N[C@H]12)C(C)(C)C (some centres unmarked) [Compound 168]		Pull-down of XIAP BIR3 (Western-blot) (XIAP BIR3): XIAP BIR3 was pulled-down
			CN[C@@H](C)C(=O)N[C@H](C(=O)N1CCC[C@H]1CN(CCc1ccccc1)C(=O)c1ccc(F)cc1)C(C)(C)C [Compound 75]	< 5	
< 10	< 10	< 1	CN[C@@H](C)C(=O)N[C@H](C(=O)N1CCC[C@H]1CNCCc1ccccc1)C(C)(C)C [Compound 16]	< 5	IC50 [2]: > 10 µM; IC50 [3]: < 1 µM; IC50 [4]: > 10 µM
